According to ChEMBL document CHEMBL3885861, “Open TG-GATES”:

Species: Rattus norvegicus
Assay: Open TG-GATES - Regimen: Daily Repeat
Assay type: toxicity, organism-based, Sprague-Dawley
Parameters: regimen Daily Repeat, gender Male, age 6 weeks
Conditions: in vivo, po, 60 mg/kg, […], route gavage, dose level Middle; for KIDNEY_L / KIDNEY_R / KIDNEY_TOTAL: tissue Kidney; for LIVER: tissue Liver; for A/G / ALP / ALT / AST / BUN / CRE / Ca / Cl / DBIL / GLC / IP / K / LDH / Na / PL / RALB / TBIL / TC / TG / TP / gamma-GTP: tissue Plasma

For `Cn1c(=O)c2[nH]cnc2n(C)c1=O.O` [THEOPHYLLINE], the Lym (tissue Blood, time 28 day) was 78%, the MCH (tissue Blood, time 28 day) was 19.8 pg and the MCHC (tissue Blood, time 28 day) was 34.5%. For the same compound, the MCV (tissue Blood, time 28 day) was 57.3 fL, the Mono (tissue Blood, time 28 day) was 3% and the Neu (tissue Blood, time 28 day) was 16.8%. For the same compound, the PT (tissue Blood, time 28 day) was 15.6 s, the Plat (tissue Blood, time 28 day) was 99.5 x10_4/uL and the RBC (tissue Blood, time 28 day) was 798 x10_4/ul. For the same compound, the Ret (tissue Blood, time 28 day) was 3.3%, the WBC (tissue Blood, time 28 day) was 104.8 x10_2/uL and the KIDNEY_L (time 7 day) was 1.2 g. The KIDNEY_R (time 7 day) was 1.2 g, the KIDNEY_TOTAL (time 7 day) was 2.4 g and the KIDNEY_L (time 14 day) was 1.3 g. It also gave a KIDNEY_R (time 14 day) of 1.3 g, a KIDNEY_TOTAL (time 14 day) of 2.6 g and a KIDNEY_L (time 28 day) of 1.5 g. For the same compound, the KIDNEY_R (time 28 day) was 1.5 g, the KIDNEY_TOTAL (time 28 day) was 3 g and the LIVER (time 7 day) was 11.6 g. For the same compound, the LIVER (time 14 day) was 13.8 g, the LIVER (time 28 day) was 16.3 g and the A/G (time 7 day) was 1.2. The ALP (time 7 day) was 1497.8 IU/L, the ALT (time 7 day) was 42.2 IU/L and the AST (time 7 day) was 77.6 IU/L. It also gave a BUN (time 7 day) of 17.6 mg/dL, a CRE (time 7 day) of 0.2 mg/dL and a Ca (time 7 day) of 10.4 mg/dL. For the same compound, the Cl (time 7 day) was 107 meq/L, the DBIL (time 7 day) was 0 mg/dL and the GLC (time 7 day) was 195.4 mg/dL. For the same compound, the IP (time 7 day) was 7.8 mg/dL, the K (time 7 day) was 4.3 meq/L and the LDH (time 7 day) was 175.4 IU/L. For the same compound, the Na (time 7 day) was 142.2 meq/L, the PL (time 7 day) was 140.2 mg/dL and the RALB (time 7 day) was 3 g/dL. It also gave a TBIL (time 7 day) of 0.006 mg/dL, a TC (time 7 day) of 72 mg/dL and a TG (time 7 day) of 86.8 mg/dL. It also gave a TP (time 7 day) of 5.6 g/dL, a gamma-GTP (time 7 day) of 1.6 IU/L and an A/G (time 14 day) of 1.1. It also gave an ALP (time 14 day) of 1338.2 IU/L, an ALT (time 14 day) of 43 IU/L and an AST (time 14 day) of 73.8 IU/L. The BUN (time 14 day) was 17 mg/dL, the CRE (time 14 day) was 0.2 mg/dL and the Ca (time 14 day) was 10.3 mg/dL. The Cl (time 14 day) was 105.6 meq/L, the DBIL (time 14 day) was 0 mg/dL and the GLC (time 14 day) was 181 mg/dL. The IP (time 14 day) was 8 mg/dL, the K (time 14 day) was 4.1 meq/L and the LDH (time 14 day) was 178 IU/L. For the same compound, the Na (time 14 day) was 142.2 meq/L, the PL (time 14 day) was 143.4 mg/dL and the RALB (time 14 day) was 3.1 g/dL. It also gave a TBIL (time 14 day) of 0.006 mg/dL, a TC (time 14 day) of 79 mg/dL and a TG (time 14 day) of 83.6 mg/dL. For the same compound, the TP (time 14 day) was 5.8 g/dL, the gamma-GTP (time 14 day) was 2.2 IU/L and the A/G (time 28 day) was 1.1. For the same compound, the ALP (time 28 day) was 1071.4 IU/L, the ALT (time 28 day) was 40.8 IU/L and the AST (time 28 day) was 67.8 IU/L. For the same compound, the BUN (time 28 day) was 16.2 mg/dL, the CRE (time 28 day) was 0.2 mg/dL and the Ca (time 28 day) was 10.3 mg/dL. It also gave a Cl (time 28 day) of 106 meq/L, a DBIL (time 28 day) of 0 mg/dL and a GLC (time 28 day) of 189.8 mg/dL. It also gave an IP (time 28 day) of 7.4 mg/dL, a K (time 28 day) of 4.1 meq/L and an LDH (time 28 day) of 137.6 IU/L. For the same compound, the Na (time 28 day) was 143.2 meq/L, the PL (time 28 day) was 135.8 mg/dL and the RALB (time 28 day) was 3.2 g/dL. It also gave a TBIL (time 28 day) of 0.024 mg/dL, a TC (time 28 day) of 71.2 mg/dL and a TG (time 28 day) of 97.4 mg/dL. It also gave a TP (time 28 day) of 6.1 g/dL and a gamma-GTP (time 28 day) of 1.8 IU/L.
